Results on one compound are retold here after patent US20210046190A1, “ANTICANCER AGENT” (OSAKA UNIVERSITY, priority 2018, published 2021).

In general, IC30 refers to the concentration needed for an effect of 30%.

Data set [1] relates to HepG2 cells. Briefly: Intracellular reactive oxygen species (ROS) levels, CellROX flow cytometry. In kind it is cell-based. The note with it: 100 μg/ml, 6 hours. The protocol:
CellROX Deep Red Reagent was purchased from Invitrogen (Carlsbad, Calif.), and intracellular ROS levels were measured. […] The treated cells were cultured at 37° C. for 6 hours, and the cell concentration of the sample was adjusted to 5×10^3 cells/ml. Then, the cells were cultured with a CellROX Deep Red Reagent (1 mM, Invitrogen) at 37° C. for 30 minutes while protected from light. Furthermore, the cells were stained with SYTOX Blue Dead Cell Stain (5 mM, Invitrogen), and counted by flow cytometry after dead cell exclusion. Flow cytometric analysis was performed using a Canto II flow cytometer (BD Biosciences).

For data set [2], the system named is HepG2 cells. Nature of the data set: Apoptosis assay, Annexin V-FITC/PI flow cytometry. In kind it is cell-based. The note with it: 100 μg/ml. The method, then: The cell apoptosis assay was performed by flow cytometry using an Annexin V-FITC Apoptosis Detection Kit (BioVision, Mountain View, Calif.) according to the manufacturer's protocol. For flow cytometric analysis, HepG2 cells (5×10^5 cells) were trypsinized, gently washed twice with PBS, and subsequently resuspended in 500 μL of 1× binding buffer. The cells were stained by adding 5 μL of Annexin V-FITC and propidium iodide (PI) in the dark at room temperature for 5 minutes. The green fluorescence of FITC-bound Annexin V and the red fluorescence of DNA-bound PI were measured using a Canto II flow cytometer (BD Biosciences).
In general terms: In flow cytometry, cells or beads pass a laser one at a time.

Data set [3] deals with HuH7. The note with it: HuH7 hepatocellular carcinoma cell line; cited from earlier work.
The subject of data set [4] is PLC. The note with it: PLC hepatocellular carcinoma cell line; cited from earlier work.
The conditions of data set [5]: 30 mg once a day in oral administration, acute leukemia; cited from earlier work.

Each structure is given as a SMILES string. In brackets after ≈: the same amount, converted by molar mass.

Take `CC(C)C[C@H](NC(=O)[C@@H](O)[C@H](N)Cc1ccccc1)C(=O)O` [ubenimex, (2S)-2-[(2S,3R)-3-amino-2-hydroxy-4-phenylbutanoylamino]-4-methylpentanoic acid]: the “intracellular ROS levels” value in data set [1] was “has an effect of enhancing intracellular ROS levels”. For the same compound, the apoptosis result in data set [2] is “has an effect of inducing apoptosis”. Further, the concentration for an effect of 30% (IC30) in data set [3] is 394.8 µg/mL (≈ 1280 µM); in data set [4], 498.8 µg/mL (≈ 1620 µM). In addition, the maximum blood concentration in data set [5] is 2.21 µg/mL.
